In patent publication US8173133B2, “Acyl pseudodipeptides which carry a functionalized auxiliary arm” (OM Pharma, priority 1999, dated 2012):
In brackets after ≈: the same amount, converted by molar mass.

Tests used:
[1] = system: Limulus Amoebocyte Lysate
[2] = system: human peripheral blood mononuclear cells; test: inhibition of E. coli LPS-induced α TNF production in human peripheral blood mononuclear cells; type: cell-based; conditions: product 10 μg/ml; for 50% inhibition LPS: LPS concentration at which α TNF production is 50% of control; for max. Inhibition LPS: LPS concentration corresponding to maximum inhibition
Procedure, shortened: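 PBMC from 6 donors (2×10^6 cells/ml, RPMI/10% FCS) were preincubated 1 h with product (10 μg/ml solution), then 18 h at 37 °C with 10-fold E. coli LPS dilutions (1–0.00001 μg/ml). Secreted TNFα by chemiluminescent ELISA; value is the LPS concentration at 50% inhibition by linear interpolation, plus maximum inhibition.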

[3] = system: murine macrophage cells; test: nitric oxide production by murine macrophage cells (Griess); type: cell-based, C57/BL6 mice; conditions: for Max concentration: concentration at maximum amplitude; for EC50 conc: concentration corresponding to 50% of maximum amplitude; for Min concentration: lowest concentration inducing a significant response
Procedure, shortened: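 Bone-marrow macrophages from male C57/BL6 mice, differentiated 8 days with L929 supernatant, exposed to serially diluted compound for 22 h at 37 °C. Nitrite in supernatant measured by Griess reaction (562 nm vs 690 nm) against a standard curve. EC50 is concentration giving 50% of maximum amplitude, by line-segment interpolation.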

SMILES	LAL EU/mg of product [1]	LAL ng of LPS equivalent per mg of product [1]	max. Inhibition [2] [%]	50% inhibition LPS [2] [µg/mL]	max. Inhibition LPS [2] [µg/mL]	Max concentration [3] [µg/mL]	EC50 conc [3] [µg/mL]	Min concentration [3] [µg/mL]	nitric oxide production [3]
CCCCCCCCCCCC(=O)O[C@H](CCCCCCCCCCC)CC(=O)N[C@H](CC(=O)O)C(=O)NCCC[C@H](COC(=O)CCCCCO)NC(=O)C[C@H](O)CCCCCCCCCCC [OM-197-MC-FV7, N—[(R)-3-dodecanoyloxytetradecanoylamino]-D-aspartic acid, α-N-{(4R)-5-hydroxy-4-[(R)-3-hydroxytetradecanoylamino]pentyl}amide 5-O-(6-hydroxyhexanoate)]	<0.05 EU/mg of product	<0.004 ng of LPS equivalent per mg of product	100	>1	0.00035	> 25.6	> 3.70	0.36	
CCCCCCCCCCCC(=O)O[C@H](CCCCCCCCCCC)CC(=O)N[C@H](CC(=O)O)C(=O)NCCC[C@H](COP(=O)(O)O)NC(=O)C[C@H](O)CCCCCCCCCCC [OM-197-MC-MP, N—[(R)-3-dodecanoyloxytetradecanoyl]-D-aspartic acid, α-N-{(4R)-5-dihydroxyphosphoryloxy-4-[(R)-3-hydroxytetradecanoyl-amino]pentyl}amide]	210.5 EU/mg of product	16.8 ng of LPS equivalent per mg of product	100	0.19	0.001	51	1.18 (≈ 1.24 µM)	0.11	
CCCCCCCCCCCC(=O)O[C@H](CCCCCCCCCCC)CC(=O)N[C@H](CC(=O)O)C(=O)NCCC[C@H](COC(=O)CCC(=O)O)NC(=O)C[C@H](O)CCCCCCCCCCC [OM-197-MC-Succ]	5.3 EU/mg of product	0.42 ng of LPS equivalent per mg of product	100	1	0.018	16	0.89 (≈ 0.919 µM)	0.22	
CCCCCCCCCCCC(=O)O[C@H](CCCCCCCCCCC)CC(=O)N[C@@H](CCOP(=O)(O)O)C(=O)NCCC[C@H](COC(=O)CCCCCO)NC(=O)C[C@H](O)CCCCCCCCCCC [OM-197-MP-AC (S, R), (3S,9R)-3-[(R)-3-dodecanoyloxytetradecanoylamino]-4-oxo-5-aza-9-[(R)-3-hydroxytetradecanoylamino]-1,10-diol 1-dihydrogenphosphate 10-(6-hydroxyhexanoate)]	<0.125 EU/mg of product	<0.01 ng of LPS equivalent per mg of product	100	>1	0.00002	40	3.28 (≈ 3.13 µM)	0.59	
CCCCCCCCCCC[C@@H](O)CC(=O)N[C@H](CCCNC(=O)[C@@H](CC(=O)O)NC(=O)C(CCCCCC)OC(=O)CCCCCCCCC)COC(=O)CCCCCN (stereo partly drawn) [OM-197-N′(C10-20C8)-MC-AC, N-(2-decanoyloxyoctanoyl)-D-aspartic acid, α-N-{(4R)-5-(6-aminohexanoyloxy)-4-[(R)-3-hydroxytetradecanoylamino]-pentyl}amide]	<0.5 EU/mg of product	<0.04 ng of LPS equivalent per mg of product	85	0.0009	<0.00001	> 100	61.05 (≈ 70.2 µM)	54.3	minor production
CCCCCCCCCCC[C@@H](O)CC(=O)N[C@H](CCCNC(=O)[C@@H](CC(=O)O)NC(C)=O)COC(=O)CCCCCN [OM-197-N′C2-MC-AC, N-acetyl-D-aspartic acid, α-N-{(4R)-5-(6-aminohexanoyloxy)-4-[(R)-3-hydroxytetradecanoylamino]-pentyl}amide]	<0.5 EU/mg of product	<0.04 ng of LPS equivalent per mg of product	100	0.0003	0.00001	200			
